These are literature values, as cited in patent publication US9908851B2, “2-piperidinyl substituted N,3-dihydroxybutanamides” (Duke University, priority 2013, dated 2018).

≈ marks a conversion by molar mass, not a printed value.

The test system of this data set is N. gonorrhoeae 35/02 (drug-resistant strain). Particulars: strain 35/02; resistance profile of the strain.

As to `CO/N=C(\C(=O)N[C@@H]1C(=O)N2C(C(=O)O)=C(CSc3nc(=O)c(=O)[nH]n3C)CS[C@H]12)c1csc(N)n1` [ceftriaxone], the MIC – broadly, the lowest concentration that inhibits growth of the organism – is 0.12 µg/mL (≈ 0.216 µM).
For the compound penicillin, the MIC is 6 µg/mL.
